PubChem BioAssay AID330 (DTP/NCI, 2004)
Several values for one entry are separate records, joined by “and”; a condition that tells them apart may be missing. Equal entries are not always repeated. Toxic doses and inconclusive results are not listed.

Test system: P388 leukemia ip, CD2F1 mice, survival T/C
Experiment: NCI In Vivo Anticancer Drug Screen. Data for tumor model P388 Leukemia (intraperitoneal) in CD2F1 (CDF1) mice
Settings: endpoint: median survival time, higher = longer survival
Method in brief: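 Mice carrying the transplanted tumor received test compound or vehicle. Survival was recorded in each group, and the value is the treated-group measurement divided by that of the vehicle-treated control group.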

[1] = dose: 100.0 mg/kg/injection, schedule: Q04DX003 (ip), vehicle: saline with Tween-80
[2] = dose: 50.0 mg/kg/injection, schedule: Q01DX005 (ip), vehicle: Klucel (hydroxypropylcellulose) (HPC)
[3] = dose: 100.0 mg/kg/injection, schedule: Q01DX005 (ip), vehicle: Klucel (hydroxypropylcellulose) (HPC)
[4] = dose: 50.0 mg/kg/injection, schedule: Q01DX009 (ip), vehicle: saline
[5] = dose: 100.0 mg/kg/injection, schedule: Q01DX009 (ip), vehicle: saline
[6] = dose: 200.0 mg/kg/injection, schedule: Q01DX009 (ip), vehicle: saline
[7] = dose: 25.0 mg/kg/injection, schedule: Q04DX002 (ip), vehicle: saline with Tween-80
[8] = dose: 50.0 mg/kg/injection, schedule: Q04DX002 (ip), vehicle: saline with Tween-80
[9] = dose: 100.0 mg/kg/injection, schedule: Q04DX002 (ip), vehicle: saline with Tween-80
[10] = dose: 100.0 mg/kg/injection, schedule: Q01DX001 (ip), vehicle: saline with Tween-80
[11] = dose: 200.0 mg/kg/injection, schedule: Q01DX001 (ip), vehicle: saline with Tween-80
[12] = dose: 50.0 mg/kg/injection, schedule: Q04DX003 (ip), vehicle: saline with Tween-80
[13] = dose: 200.0 mg/kg/injection, schedule: Q04DX003 (ip), vehicle: saline with Tween-80
[14] = dose: 200.0 mg/kg/injection, schedule: Q01DX005 (ip), vehicle: Klucel (hydroxypropylcellulose) (HPC)

COc1cc([C@@H]2c3cc4c(cc3[C@H](OC(C)=O)[C@H]3COC(=O)[C@@H]23)OCO4)cc(OC)c1OC
T/C (dose: 25.0 mg/kg/injection, schedule: Q01DX009 (ip), vehicle: saline with Tween-80): 118 % of control | T/C (dose: 29.3 mg/kg/injection, schedule: Q04DX003 (ip), vehicle: saline with Tween-80): 88 % of control | T/C (dose: 50.0 mg/kg/injection, schedule: Q01DX009 (ip), vehicle: saline with Tween-80): 150 % of control | T/C (dose: 66.0 mg/kg/injection, schedule: Q04DX003 (ip), vehicle: saline with Tween-80): 100 % of control | T/C [1]: 115 % of control

O=C(/C(=C\c1ccccc1[N+](=O)[O-])S(=O)(=O)c1ccccc1)c1ccc([N+](=O)[O-])cc1
T/C (dose: 50.0 mg/kg/injection, schedule: Q01DX005 (ip), vehicle: saline with Tween-80): 98 % of control | T/C (dose: 100.0 mg/kg/injection, schedule: Q01DX005 (ip), vehicle: saline with Tween-80): 103 % of control | T/C (dose: 200.0 mg/kg/injection, schedule: Q01DX005 (ip), vehicle: saline with Tween-80): 95 % of control

O=C(O)c1cccc2c1Cc1cc([N+](=O)[O-])ccc1-2
T/C [2]: 95 % of control | T/C [3]: 103 % of control

CSCCC(NC(C)=O)C(C)=O (stereo not given)
T/C [4]: 110 % of control | T/C [5]: 109 % of control | T/C [6]: 105 % of control

Nc1ccn(CC(=O)c2ccc(Cl)s2)c(=O)n1
T/C (dose: 100.0 mg/kg/injection, schedule: Q04DX003 (ip), vehicle: water): 100 % of control | T/C (dose: 200.0 mg/kg/injection, schedule: Q04DX003 (ip), vehicle: water): 100 % of control | T/C (dose: 400.0 mg/kg/injection, schedule: Q04DX003 (ip), vehicle: water): 104 % of control

C=CCc1ccccc1C1=[N+](C)C(C)(C)CO1
T/C [7]: 100 % of control | T/C [8]: 102 % of control | T/C [9]: 97 % of control

C/C(=N\N=c1\sc2ccccc2n1CC(=O)O)c1ccccc1
T/C [10]: 97 % of control | T/C [11]: 89 % of control

NCc1c(Cl)c(Cl)c(Cl)c(CN)c1Cl
T/C [12]: 100 % of control | T/C [1]: 100 % of control | T/C [13]: 105 % of control

COc1ccc2nc(C)c(C)nc2c1Cl
T/C [2]: 98 % of control | T/C [3]: 100 % of control | T/C [14]: 95 % of control

CN(C)CCCN(c1ccccc1)c1ccccc1
T/C [2]: 98 % of control | T/C [3]: 98 % of control | T/C [14]: 98 % of control

CCC(C(=O)O)C1(C(=O)O)CCCCCC1 (stereo not given)
T/C [10]: 101 % of control | T/C [9]: 98 % of control | T/C [11]: 106 % of control | T/C (dose: 200.0 mg/kg/injection, schedule: Q04DX002 (ip), vehicle: saline with Tween-80): 98 % of control | T/C (dose: 400.0 mg/kg/injection, schedule: Q01DX001 (ip), vehicle: saline with Tween-80): 108 % of control | T/C (dose: 400.0 mg/kg/injection, schedule: Q04DX002 (ip), vehicle: saline with Tween-80): 109 % of control

C(=NCCN=Cc1ccccc1)c1ccccc1
T/C (dose: 200.0 mg/kg/injection, schedule: Q01DX009 (ip), vehicle: saline with Tween-80): 95 % of control | T/C (dose: 400.0 mg/kg/injection, schedule: Q01DX009 (ip), vehicle: saline with Tween-80): 87 % of control

CCOC(=O)NN(C(=O)OCC)/C(C(=O)OCC)=C(/C)N
T/C [4]: 97 % of control and 102 % of control and 93 % of control | T/C [5]: 97 % of control and 104 % of control | T/C [6]: 98 % of control and 89 % of control

CC[n+]1c(/C=C/c2ccc(N(CCC(=O)O)CCC(=O)O)cc2)ccc2ccccc21
T/C (dose: 12.5 mg/kg/injection, schedule: Q04DX002 (ip), vehicle: saline with Tween-80): 100 % of control | T/C [7]: 106 % of control | T/C [8]: 106 % of control

O=[N+]([O-])c1cc2[nH]cnc2c([N+](=O)[O-])c1N1CCOCC1
T/C (dose: 25.0 mg/kg/injection, schedule: Q04DX003 (ip), vehicle: saline with Tween-80): 100 % of control | T/C [12]: 104 % of control | T/C [1]: 97 % of control

CCCCCCCCC(Cn1ccnc1)c1ccc(F)cc1 (stereo not given)
T/C [12]: 106 % of control | T/C [1]: 100 % of control and 103 % of control | T/C [13]: 100 % of control
